For data set [1] the following is noted: DCM.
In another data set the target is T1, ERAP1 (Homo sapiens, UniProt Q9NZ08).
T1 construct: Purified ERAP1(37-941)-10His (ERAP1); 10His (C)
Nature of the data set: ERAP1 mediated hydrolysis of an amide substrate (10-mer inhibition assay), biochemical system. The note with it: 10-mer substrate, incubated at 23° C. for 1 h, excitation 279 nm and emission 355 nm; read-out: IC50 vs Decapeptide WRVYEKC(Dnp)ALK-acid (where Dnp is Dinitrophenyl maleimide) (10-mer). The essentials: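 Purified ERAP1(37-941)-10His in 25 mM Bis-tris propane, 0.05% HPMC, pH 7.75 was mixed with compound, then 240 μM L-AMC or 100 μM 10-mer WRVYEKC(Dnp)ALK (concentrations before mixing) was added, 1 h at 23 °C. 10-mer cleavage read as tryptophan fluorescence (ex 279/em 355 nm); L-AMC at ex 365/em 442 nm. IC50 from 4-parameter fit.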

pIC50: −log10 of the molar value. Where two headings read alike, the source gives them in different places.

T1 sequence (Q9NZ08 37-941): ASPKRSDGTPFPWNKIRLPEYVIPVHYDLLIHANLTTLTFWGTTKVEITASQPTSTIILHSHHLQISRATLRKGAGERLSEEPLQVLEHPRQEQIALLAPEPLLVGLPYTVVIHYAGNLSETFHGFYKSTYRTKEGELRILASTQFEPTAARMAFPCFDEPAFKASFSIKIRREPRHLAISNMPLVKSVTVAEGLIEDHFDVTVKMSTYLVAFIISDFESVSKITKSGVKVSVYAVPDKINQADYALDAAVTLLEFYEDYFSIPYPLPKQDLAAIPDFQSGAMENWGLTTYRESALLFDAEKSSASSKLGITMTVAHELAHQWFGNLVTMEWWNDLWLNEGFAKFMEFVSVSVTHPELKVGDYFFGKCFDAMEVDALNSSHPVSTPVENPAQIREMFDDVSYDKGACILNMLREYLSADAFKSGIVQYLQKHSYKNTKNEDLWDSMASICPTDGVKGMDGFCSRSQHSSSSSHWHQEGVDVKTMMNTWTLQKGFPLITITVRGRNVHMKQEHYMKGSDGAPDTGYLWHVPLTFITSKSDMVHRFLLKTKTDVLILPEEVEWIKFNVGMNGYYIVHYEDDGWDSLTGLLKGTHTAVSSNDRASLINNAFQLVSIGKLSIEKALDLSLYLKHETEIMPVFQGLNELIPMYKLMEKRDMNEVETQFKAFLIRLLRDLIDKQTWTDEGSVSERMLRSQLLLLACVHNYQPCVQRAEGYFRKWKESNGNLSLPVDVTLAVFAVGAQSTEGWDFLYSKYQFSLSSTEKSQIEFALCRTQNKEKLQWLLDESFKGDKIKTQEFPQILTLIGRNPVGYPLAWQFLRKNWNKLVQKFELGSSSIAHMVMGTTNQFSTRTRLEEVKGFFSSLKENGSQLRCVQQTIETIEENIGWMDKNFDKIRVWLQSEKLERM

Regarding `COC(=O)c1ccc2c(c1)S(=O)(=O)Nc1cc(C#N)c(Cl)cc1N1CCCCC1C=CCO2` (stereo not drawn), the ring closure, isolated yield in data set [1] (from C=CCOc1ccc(C(=O)OC)cc1S(=O)(=O)Nc1cc(C#N)c(Cl)cc1N1CCCCC1C=C, rcm bond, 12-membered ring, Hoveyda-Grubbs II (2 x 5 mol%), 56.3 mM, 88.0 h) was 25%.

In data set [1] (from COC(=O)c1ccc(O)c(S(=O)(=O)Nc2cc(C#N)c(Cl)cc2N2CCCC[C@@H]2CCCO)c1, ether bond, 12-membered ring, PPh3/DIAD, 43.7 mM, 1.0 h), `COC(=O)c1ccc2c(c1)S(=O)(=O)Nc1cc(C#N)c(Cl)cc1N1CCCC[C@@H]1CCCO2` showed a ring closure, isolated yield of 22%.

On to `COC(=O)c1ccc2c(c1)S(=O)(=O)Nc1cc(C#N)c(Cl)cc1N1CCCC[C@H]1CC=CCO2`, for which the ring closure, isolated yield in data set [1] (from C=CCOc1ccc(C(=O)OC)cc1S(=O)(=O)Nc1cc(C#N)c(Cl)cc1N1CCCC[C@H]1CC=C, rcm bond, 13-membered ring, Hoveyda-Grubbs II, 20.1 mM, 16.0 h) came to 81%.

Compound `COC(=O)c1ccc2c(c1)S(=O)(=O)Nc1cc(C#N)c(Cl)cc1N1CCCC[C@H]1CCCO2` showed a ring closure, isolated yield in data set [1] (from COC(=O)c1ccc(O)c(S(=O)(=O)Nc2cc(C#N)c(Cl)cc2N2CCCC[C@H]2CCCO)c1, ether bond, 12-membered ring, PPh3/DIAD, 47.1 mM, 1.0 h) of 23%.

`COC(=O)c1ccc2c(c1)S(=O)(=O)Nc1cc(C#N)c(F)cc1N1CCCC[C@H]1CCCCO2` had a ring closure, isolated yield in data set [1] (from COC(=O)c1ccc(O)c(S(=O)(=O)Nc2cc(C#N)c(F)cc2N2CCCC[C@H]2CCCCO)c1, ether bond, 13-membered ring, PPh3/DIAD, 31.7 mM, 1.0 h) of 88%.

What is called pIC50 is −log10 of the IC50, conventionally taken in molar units. Consider `N#Cc1ccc2c(c1)NS(=O)(=O)c1cc(C(=O)O)ccc1OCCCC1CCCCN21` (stereo not drawn) [Example 5, 2-cyano-6,7,8,9,9a,10,11,12-octahydro-19H-dibenzo[b,f]pyrido[1,2-h][1]oxa[4]thia[5,8]diazacyclododecine-16-carboxylic acid 18,18-dioxide], for which, on ERAP1, the pIC50 was greater than 6.60.

With `N#Cc1cc2c(cc1Cl)N1CCCC[C@@H]1CCCCOc1ccc(C(=O)O)cc1S(=O)(=O)N2` [Example 52, (R)-3-chloro-2-cyano-7,8,9,9a,10,11,12,13-octahydro-6H,20H-dibenzo[b,f]pyrido[1,2-h][1]oxa[4]thia[5,8]diazacyclotridecine-17-carboxylic acid 19,19-dioxide], at ERAP1, the pIC50 is greater than 6.60.

As for `N#Cc1cc2c(cc1Cl)N1CCCC[C@H]1CCCCOc1ccc(C(=O)O)cc1S(=O)(=O)N2` [Example 53, (S)-3-chloro-2-cyano-7,8,9,9a,10,11,12,13-octahydro-6H, 20H-dibenzo[b,f]pyrido[1,2-h][1]oxa[4]thia[5,8]diazacyclotridecine-17-carboxylic acid 19,19-dioxide], the negative logarithm of the IC50 (pIC50) at ERAP1 is greater than 6.60.

For `N#Cc1cc2c(cc1F)N1CCCC[C@H]1CCCCOc1ccc(C(=O)O)cc1S(=O)(=O)N2` [Example 57, (S)-2-cyano-3-fluoro-7,8,9,9a,10,11,12,13-octahydro-6H, 20H-dibenzo[b,f]pyrido[1,2-h][1]oxa[4]thia[5,8]diazacyclotridecine-17-carboxylic acid 19,19-dioxide], at ERAP1, the pIC50 was greater than 6.60.

`N#Cc1cc2c(cc1Cl)N1CCCC[C@@H]1CCCOc1ccc(C(=O)O)cc1S(=O)(=O)N2` [Example 59, (R)-3-chloro-2-cyano-6,7,8,9,9a,10,11,12-octahydro-19H-dibenzo[b,f]pyrido[1,2-h][1]oxa[4]thia[5,8]diazacyclododecine-16-carboxylic acid 18,18-dioxide]: the negative logarithm of the IC50 (pIC50) on ERAP1 was greater than 6.60.

As for `N#Cc1cc2c(cc1Cl)N1CCCC[C@H]1CCCOc1ccc(C(=O)O)cc1S(=O)(=O)N2` [Example 60, (S)-3-chloro-2-cyano-6,7,8,9,9a,10,11,12-octahydro-19H-dibenzo[b,f]pyrido[1,2-h][1]oxa[4]thia[5,8]diazacyclododecine-16-carboxylic acid 18,18-dioxide], on ERAP1, the pIC50 is greater than 6.60.

On to `N#Cc1cc2c(cc1Cl)N1CCCC[C@H]1C/C=C/COc1ccc(C(=O)O)cc1S(=O)(=O)N2` [Example 61, (S,E)-3-chloro-2-cyano-7,8,9,9a,10,13-hexahydro-6H, 20H-dibenzo[b,f]pyrido[1,2-h][1]oxa[4]thia[5,8]diazacyclotridecine-17-carboxylic acid 19,19-dioxide], for which the negative-log IC50 (pIC50) on ERAP1 is greater than 6.60.

As for `CS(=O)(=O)NC(=O)c1ccc2c(c1)S(=O)(=O)Nc1cc(C#N)c(F)cc1N1CCCC[C@H]1CCCCO2` [Example 63, (S)-2-cyano-3-fluoro-N-(methylsulfonyl)-7,8,9,9a,10,11,12,13-octahydro-6H, 20H-dibenzo[b,f]pyrido[1,2-h][1]oxa[4]thia[5,8]diazacyclotridecine-17-carboxamide 19,19-dioxide], on ERAP1, the pIC50 was less than 6.00.

`CS(=O)(=O)NC(=O)c1ccc2c(c1)S(=O)(=O)Nc1cc(C#N)c(Cl)cc1N1CCCC[C@H]1CCCO2` [Example 64, (S)-3-chloro-2-cyano-N-(methylsulfonyl)-6,7,8,9,9a,10,11,12-octahydro-19H-dibenzo[b,f]pyrido[1,2-h][1]oxa[4]thia[5,8]diazacyclododecine-16-carboxamide 18,18-dioxide]: at ERAP1, the pIC50 was less than 6.00.

For `N#Cc1cc2c(cc1Cl)N1CCCC[C@H]1COCCOc1ccc(C(=O)O)cc1S(=O)(=O)N2` [Example 69, (S)-3-chloro-2-cyano-6,7,8,9,9a,10,12,13-octahydro-20H-dibenzo[e,i]pyrido[1,2-k][1,4]dioxa[7]thia[8,11]diazacyclotridecine-17-carboxylic acid 19,19-dioxide], on ERAP1, the pIC50 is greater than 6.60.

For the compound `N#Cc1cc2c(cc1Cl)N1CCCC[C@H]1COC/C=C/c1ccc(C(=O)O)cc1S(=O)(=O)N2` [Example 70, (S,E)-3-chloro-2-cyano-6,7,8,9,9a,10-hexahydro-12H, 20H-dibenzo[e,i]pyrido[2,1-c][1]oxa[8]thia[4,7]diazacyclotridecine-17-carboxylic acid 19,19-dioxide], at ERAP1, the pIC50 is greater than 6.60.

Take `N#Cc1cc2c(cc1Cl)N1CCCC[C@H]1CCC/C=C/c1ccc(C(=O)O)cc1S(=O)(=O)N2` [Example 71, (R,E)-3-chloro-2-cyano-6,7,8,9,9a,10,11,12-octahydro-20H-dibenzo[c,l]pyrido[1,2-e][1]thia[2,5]diazacyclotridecine-17-carboxylic acid 19,19-dioxide]: on ERAP1, the pIC50 is 6.00 to 6.60.

On to `N#Cc1cc2c(cc1Cl)N1CCCC[C@H]1CCCCCc1ccc(C(=O)O)cc1S(=O)(=O)N2` [Example 72, (R)-3-chloro-2-cyano-6,7,8,9,9a,10,11,12,13,14-decahydro-20H-dibenzo[c,l]pyrido[1,2-e][1]thia[2,5]diazacyclotridecine-17-carboxylic acid 19,19-dioxide], for which the pIC50 at ERAP1 is greater than 6.60.

Take `N#Cc1cc2c(cc1Cl)N1CCCC[C@H]1COCCCc1ccc(C(=O)O)cc1S(=O)(=O)N2` [Example 73, (S)-3-chloro-2-cyano-6,7,8,9,9a,10,13,14-octahydro-12H, 20H-dibenzo[e,i]pyrido[2,1-c][1]oxa[8]thia[4,7]diazacyclotridecine-17-carboxylic acid 19,19-dioxide]: on ERAP1, the negative logarithm of the IC50 (pIC50) was greater than 6.60.

“(E)-20-tert-butyl 17-methyl 2-(trifluoromethyl)-6,7,8,9,9a,10-hexahydrodibenzo[b,f]pyrido[1,2-h][1,4,5,8]oxathiadiazacyclotridecine-17,20(13H)-dicarboxylate 19,19-dioxide” had a ring closure, isolated yield in data set [1] (rcm bond, 13-membered ring, Hoveyda-Grubbs II (two portions), 42.3 mM, 35.0 °C) of 33%.

On to “methyl (E)-2-cyano-7,8,9,9a,10,13-hexahydro-6H, 20H-dibenzo[b,f]pyrido[1,2-h][1]oxa[4]thia[5,8]diazacyclotridecine-17-carboxylate 19,19-dioxide”, for which the ring closure, isolated yield in data set [1] (rcm bond, 13-membered ring, Hoveyda-Grubbs II (5 mol%), 50.2 mM) is 66%.

Source of the values: patent publication US20240300976A1, “COMPOUNDS AS MODULATORS OF ENDOPLASMIC RETICULUM AMINOPEPTIDASE 1 (ERAP1)” (GREY WOLF THERAPEUTICS LIMITED, priority 2020, published 2024).
